Experimental data published in patent publication US20060257368A1, “Devices and methods for improved viability of cells” (Clemson University, priority 2005, published 2006).

Tests used:
[1] = tested on: Human umbilical cord stem cells; test: Survival of stem cells transplanted into brain tissue after exposure to a hypoxia simulating agent; type: in vivo; conditions: cells exposed to 50 uM/ml for 12 hours before transplantation into brain tissue; vs untreated group
Description: Human umbilical cord stem cells were exposed to 50 uM/ml ethyl 3,4-dihydroxybenzoate for 12 hours before transplanted into brain tissue to improve their tolerance to hypoxia condition at the injection site after transplantation procedure. Ethyl 3,4-dihydroxybenzoate can increase glucose uptake and glycolytic metabolism of cells. Increased glucose uptake and glycolytic metabolism is an important compensatory mechanism that allows ATP production to be maintained. Such an approach also increases resistance of the transplanted cells to metabolic poison. The resulting transplanted cells will be adjusted to a deficiency of oxygen and, thus, more resistant to transplantation procedures. The survival rate of the transplanted cells is higher for ethyl 3,4-dihydroxybenzoate treated group than that for untreated group.

[2] = tested on: adult Fischer 344 male rat brains; test: Adult brain tissue reaction to PNPX loaded HFMs implanted into rat brain (immunohistochemistry); type: in vivo; conditions: constant release into local brain tissue, compared to blank control HFM; anti-GFAP and anti-CSPG staining; FIG. 6
Text: Following adult central nervous system (CNS) injury, resident cells and blood-derived inflammatory cells become activated and migrate to the lesion site, eventually form a dense glial scar that is believed to play a significant role in inhibiting CNS regeneration. The inhibitory nature of the glial scar is due not only to the existence of inflammatory cell types, but also to the ECM molecules that are derived from them. […] Blocking CSPG biosynthesis may be a potential means to ameliorate CNS glial scar formation. […] CSPG inhibitor 4-nitrophenyl-β-D-xylopyranoside (PNPX) was incorporated into the HFMs during the fabrication process. The inflammatory responses of adult brain tissue to the HFMs with or without PNPX were evaluated and compared.
Polyacrylonitrile/polyvinylchloride copolymer (PAN/PVC) was used as a model non-degradable polymer as a carrier for PNPX delivery, and poly(DL-Lactide-co-glycolide) (PLGA) 50/50 copolymers was employed as a model degradable polymer for PNPX delivery. Polymer-PNPX was dissolved in dimethyl sulfoxide (DMSO). 1% phthalized-chitosan was added into the solution to enhance the PNPX loading efficiency. PNPX loaded HFMs were fabricated using a wet phase-inversion technique. PNPX loading efficiency and releasing profiles were studied in vitro using HPLC. […]

Structure (SMILES) | survival rate of the transplanted cells [1] | glial scarring response in the vicinity of the PNPX loaded HFM [2]
CCOC(=O)c1ccc(O)c(O)c1 [ethyl 3,4-dihydroxybenzoate] | higher | 
O=[N+]([O-])c1ccc(O[C@@H]2OC[C@@H](O)[C@H](O)[C@H]2O)cc1 [PNPX, 4-nitrophenyl-β-D-xylopyranoside] |  | significantly (P<0.05) suppressed
